Laboratory results from ChEMBL document CHEMBL1201862, “PubChem BioAssay data set” (2004).
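Grown in 96-well plates, cells were treated for 48 hours with each compound at five concentrations. Insufficient inhibition: endpoint recorded as highest concentration tested. GI50 is the concentration that inhibits growth by half.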 Activity calls are given as the source filed them. Cut-off read from the data, not from the text of the source: active = GI50 up to about 1.1 µM and inactive = higher.

Assays:
Experiment in all cases: NCI-60 cell line screen, 48 h
[1] = tested on: SNB-19
[2] = tested on: SF-268
[3] = tested on: OVCAR-4
[4] = tested on: COLO 205
[5] = tested on: HCT-15
[6] = tested on: Malme-3M
[7] = tested on: LOX IMVI
[8] = tested on: SK-MEL-5
[9] = tested on: NCI-H460
[10] = tested on: HCT-116
[11] = tested on: HOP-62
[12] = tested on: ACHN
[13] = tested on: TK-10
[14] = tested on: PC-3
[15] = tested on: CAKI-1
[16] = tested on: OVCAR-5
[17] = tested on: U-251
[18] = tested on: KM12
[19] = tested on: SK-MEL-28
[20] = tested on: SR
[21] = tested on: SNB-75
[22] = tested on: OVCAR-8
[23] = tested on: SF-295
[24] = tested on: 786-0
[25] = tested on: MOLT-4
[26] = tested on: UACC-62
[27] = tested on: IGROV-1
[28] = tested on: EKVX
[29] = tested on: HT-29
[30] = tested on: RXF 393
[31] = tested on: SF-539
[32] = tested on: UO-31
[33] = tested on: A549
[34] = tested on: MDA-N
[35] = tested on: SW-620
[36] = tested on: T47D
[37] = tested on: NCI-H23
[38] = tested on: MDA-MB-231
[39] = tested on: HOP-92
[40] = tested on: DU-145
[41] = tested on: HCC 2998
[42] = tested on: HL-60
[43] = tested on: SN12C
[44] = tested on: SK-MEL-2
[45] = tested on: A498
[46] = tested on: Hs-578T
[47] = tested on: NCI/ADR-RES
[48] = tested on: K562
[49] = tested on: NCI-H226
[50] = tested on: NCI-H522
[51] = tested on: UACC-257
[52] = tested on: MDA-MB-435
[53] = tested on: CCRF-CEM
[54] = tested on: SK-OV-3
[55] = tested on: RPMI-8226
[56] = tested on: OVCAR-3
[57] = tested on: MCF7
[58] = tested on: BT-549
[59] = tested on: M14

Which results are given for N=C1N(/N=C/c2ccccn2)/C(=N\c2ccccc2)C(=S)N1c1ccccc1?
GI50 [1]: 15.4 µM (inactive); GI50 [2]: 5.12 µM (inactive); GI50 [3]: 11.7 µM (inactive); GI50 [4]: 1.42 µM (inactive); GI50 [5]: 2.54 µM; GI50 [6]: 10.9 µM (inactive); GI50 [7]: 2.22 µM (inactive); GI50 [8]: 4.48 µM (inactive); GI50 [9]: 4.15 µM (inactive); GI50 [10]: 2.87 µM (inactive); GI50 [11]: 10.2 µM (inactive); GI50 [12]: 2.55 µM (inactive); GI50 [13]: 11 µM (inactive); GI50 [14]: 3.57 µM (inactive); GI50 [15]: 6.44 µM (inactive); GI50 [16]: 4.74 µM (inactive); GI50 [17]: 8.18 µM (inactive); GI50 [18]: 4.01 µM (inactive); GI50 [19]: 11 µM (inactive); GI50 [20]: > 100 µM (inactive); GI50 [21]: 15.3 µM (inactive); GI50 [22]: 3.6 µM (inactive); GI50 [23]: 5.81 µM (inactive); GI50 [24]: 2.94 µM (inactive); GI50 [25]: > 100 µM (inactive); GI50 [26]: 1.17 µM (inactive); GI50 [27]: 5.05 µM (inactive); GI50 [28]: 3.41 µM (inactive); GI50 [29]: 2.97 µM (inactive); GI50 [30]: 3.15 µM (inactive); GI50 [31]: 3.77 µM (inactive); GI50 [32]: 4.37 µM (inactive); GI50 [33]: 5.51 µM (inactive); GI50 [34]: 3.56 µM (inactive); GI50 [35]: 3.47 µM (inactive); GI50 [36]: 5.5 µM (inactive); GI50 [37]: 6.07 µM (inactive); GI50 [38]: 6.7 µM (inactive); GI50 [39]: 10.8 µM (inactive); GI50 [40]: 3.31 µM (inactive); GI50 [41]: 10.2 µM (inactive); GI50 [42]: 1.85 µM (inactive); GI50 [43]: 5.31 µM (inactive); GI50 [44]: 2.14 µM (inactive); GI50 [45]: 19.4 µM (inactive); GI50 [46]: 11.5 µM (inactive); GI50 [47]: 2.83 µM (inactive); GI50 [48]: 3.33 µM (inactive); GI50 [49]: 13.5 µM (inactive); GI50 [50]: 1.92 µM (inactive); GI50 [51]: 9.27 µM (inactive); GI50 [52]: 5.41 µM (inactive); GI50 [53]: 2.05 µM (inactive); GI50 [54]: 16.6 µM (inactive); GI50 [55]: > 100 µM (inactive)

With C=CCN1C(=O)/C(=C/c2cccs2)N=C1SC1OC(COC(=O)c2ccccc2)C(OC(=O)c2ccccc2)C1OC(=O)c1ccccc1 (stereo not given) as the compound, how does the GI50 [56] read?
The GI50 was > 100 µM (inactive).

And the GI50 [3]?
Its GI50 is > 100 µM (inactive).

What about the GI50 [4] of the same compound?
Its GI50 is > 100 µM (inactive).

What about the GI50 [5] of the same compound?
Its GI50 is > 100 µM.

What about the GI50 [6] of the same compound?
The GI50 was > 100 µM (inactive).

What about the GI50 [7] of the same compound?
Its GI50 is > 100 µM (inactive).

And the GI50 [8]?
The GI50 was > 100 µM (inactive).

And the GI50 [9]?
The GI50 was > 100 µM (inactive).

And the GI50 [11]?
Its GI50 is > 100 µM (inactive).

And the GI50 [12]?
Its GI50 is > 100 µM (inactive).

What about the GI50 [13] of the same compound?
The GI50 was > 100 µM (inactive).

And the GI50 [14]?
Its GI50 is > 100 µM (inactive).

What about the GI50 [15] of the same compound?
Its GI50 is > 100 µM (inactive).

And the GI50 [16]?
The GI50 was > 100 µM (inactive).

What about the GI50 [17] of the same compound?
The GI50 was > 100 µM (inactive).

What about the GI50 [18] of the same compound?
The GI50 was > 100 µM (inactive).

What about the GI50 [19] of the same compound?
Its GI50 is > 100 µM (inactive).

What about the GI50 [20] of the same compound?
Its GI50 is > 100 µM (inactive).

What about the GI50 [21] of the same compound?
The GI50 was > 100 µM (inactive).

And the GI50 [22]?
Its GI50 is > 100 µM (inactive).

And the GI50 [57]?
Its GI50 is 36.6 µM (inactive).

What about the GI50 [23] of the same compound?
The GI50 was > 100 µM (inactive).

And the GI50 [25]?
The GI50 was > 100 µM (inactive).

And the GI50 [26]?
Its GI50 is > 100 µM (inactive).

And the GI50 [27]?
Its GI50 is > 100 µM (inactive).

What about the GI50 [28] of the same compound?
Its GI50 is > 100 µM (inactive).

And the GI50 [30]?
The GI50 was > 100 µM (inactive).

And the GI50 [31]?
The GI50 was > 100 µM (inactive).

And the GI50 [35]?
Its GI50 is > 100 µM (inactive).

What about the GI50 [37] of the same compound?
Its GI50 is > 100 µM (inactive).

What about the GI50 [38] of the same compound?
Its GI50 is > 100 µM (inactive).

And the GI50 [39]?
Its GI50 is > 100 µM (inactive).

What about the GI50 [40] of the same compound?
Its GI50 is > 100 µM (inactive).

What about the GI50 [41] of the same compound?
Its GI50 is > 100 µM (inactive).

What about the GI50 [42] of the same compound?
Its GI50 is > 100 µM (inactive).

And the GI50 [44]?
Its GI50 is > 100 µM (inactive).

And the GI50 [45]?
The GI50 was > 100 µM (inactive).

What about the GI50 [47] of the same compound?
Its GI50 is > 100 µM (inactive).

What about the GI50 [48] of the same compound?
Its GI50 is > 100 µM (inactive).

And the GI50 [49]?
The GI50 was > 100 µM (inactive).

And the GI50 [50]?
Its GI50 is 11.4 µM (inactive).

What about the GI50 [51] of the same compound?
The GI50 was > 100 µM (inactive).

And the GI50 [58]?
The GI50 was > 100 µM (inactive).

What about the GI50 [52] of the same compound?
The GI50 was > 100 µM (inactive).

And the GI50 [53]?
The GI50 was 53.5 µM (inactive).

And the GI50 [54]?
Its GI50 is > 100 µM (inactive).

And the GI50 [55]?
Its GI50 is 22.4 µM (inactive).

What does the source list for O=C(/N=N/c1ccc(Cl)cc1Cl)NNc1ccc(Cl)cc1Cl?
GI50 [1]: 28.6 µM (inactive); GI50 [56]: 15.9 µM (inactive); GI50 [2]: 30.1 µM (inactive); GI50 [3]: 13.3 µM (inactive); GI50 [5]: 19.6 µM; GI50 [6]: 18.6 µM (inactive); GI50 [7]: 16.5 µM (inactive); GI50 [8]: 14.9 µM (inactive); GI50 [9]: 16.4 µM (inactive); GI50 [10]: 13.9 µM (inactive); GI50 [11]: 1.75 µM (inactive); GI50 [12]: 16.6 µM (inactive); GI50 [13]: 24.3 µM (inactive); GI50 [14]: 12.2 µM (inactive); GI50 [15]: 19.6 µM (inactive); GI50 [16]: 19.3 µM (inactive); GI50 [17]: 18.5 µM (inactive); GI50 [19]: 20.7 µM (inactive); GI50 [20]: 23.2 µM (inactive); GI50 [21]: 31.6 µM (inactive); GI50 [22]: 17.7 µM (inactive); GI50 [24]: 15.3 µM (inactive); GI50 [25]: 16.3 µM (inactive); GI50 [26]: 13.9 µM (inactive); GI50 [27]: 27 µM (inactive); GI50 [59]: > 10 µM (inactive); GI50 [29]: 37.2 µM (inactive); GI50 [32]: 12 µM (inactive); GI50 [33]: 18.2 µM (inactive); GI50 [34]: 16.2 µM (inactive); GI50 [35]: 21.3 µM (inactive); GI50 [36]: 21.7 µM (inactive); GI50 [37]: 17.1 µM (inactive); GI50 [38]: 20.7 µM (inactive); GI50 [40]: 14.7 µM (inactive); GI50 [41]: 11.4 µM (inactive); GI50 [42]: 20.7 µM (inactive); GI50 [43]: 16.4 µM (inactive); GI50 [44]: 12.9 µM (inactive); GI50 [45]: 15.7 µM (inactive); GI50 [48]: 20.8 µM (inactive); GI50 [49]: 19 µM (inactive); GI50 [50]: 19.1 µM (inactive); GI50 [51]: 19.6 µM (inactive); GI50 [58]: 14.8 µM (inactive); GI50 [52]: 16.1 µM (inactive); GI50 [53]: 20.2 µM (inactive); GI50 [55]: 19 µM (inactive)
